Experimental data as given in the NIST ThermoML archive (doi:10.1021/acs.jced.7b00773).

Conditions: Liquid; for viscosity: Concentric cylinders viscometry

C=CCn1cc[n+](C)c1.O=S(=O)([N-]S(=O)(=O)C(F)(F)F)C(F)(F)F
100 kPa
Conditions	viscosity [mPa·s]
293.15 K	40.69
303.15 K	28.08
313.15 K	20.31
323.15 K	15.29
333.15 K	11.91
343.15 K	9.52
353.15 K	7.783
363.15 K	6.489
373.15 K	5.498

Conditions	mass density [kg/m3]
293.15 K, 100 kPa, Vibrating tube method	1506.1
303.15 K, 100 kPa, Vibrating tube method	1496
312.5 K, 10000 kPa, Bellows volumetry	1493.8
312.5 K, 20000 kPa, Bellows volumetry	1501.1
312.5 K, 30000 kPa, Bellows volumetry	1508
312.5 K, 40000 kPa, Bellows volumetry	1514.7
312.5 K, 50000 kPa, Bellows volumetry	1521
312.5 K, 60000 kPa, Bellows volumetry	1527.1
312.5 K, 70000 kPa, Bellows volumetry	1533.1
312.5 K, 80000 kPa, Bellows volumetry	1538.8
312.5 K, 90000 kPa, Bellows volumetry	1544.2
312.5 K, 100000 kPa, Bellows volumetry	1549.5
312.5 K, 110000 kPa, Bellows volumetry	1554.7
312.5 K, 120000 kPa, Bellows volumetry	1559.7
312.5 K, 130000 kPa, Bellows volumetry	1564.7
312.5 K, 140000 kPa, Bellows volumetry	1569.4
312.5 K, 150000 kPa, Bellows volumetry	1574
312.5 K, 160000 kPa, Bellows volumetry	1578.6
312.5 K, 170000 kPa, Bellows volumetry	1583.2
312.5 K, 180000 kPa, Bellows volumetry	1587.5
312.5 K, 190000 kPa, Bellows volumetry	1591.8
312.5 K, 200000 kPa, Bellows volumetry	1596
313.15 K, 100 kPa, Vibrating tube method	1486
323.15 K, 100 kPa, Vibrating tube method	1476
332.3 K, 10000 kPa, Bellows volumetry	1474.5
332.3 K, 20000 kPa, Bellows volumetry	1482.1
332.3 K, 30000 kPa, Bellows volumetry	1489.6
332.3 K, 40000 kPa, Bellows volumetry	1496.7
332.3 K, 50000 kPa, Bellows volumetry	1503.4
332.3 K, 60000 kPa, Bellows volumetry	1509.7
332.3 K, 70000 kPa, Bellows volumetry	1515.8
332.3 K, 80000 kPa, Bellows volumetry	1521.7
332.3 K, 90000 kPa, Bellows volumetry	1527.3
332.3 K, 100000 kPa, Bellows volumetry	1533
332.3 K, 110000 kPa, Bellows volumetry	1538.5
332.3 K, 120000 kPa, Bellows volumetry	1543.8
332.3 K, 130000 kPa, Bellows volumetry	1548.9
332.3 K, 140000 kPa, Bellows volumetry	1553.7
332.3 K, 150000 kPa, Bellows volumetry	1558.5
332.3 K, 160000 kPa, Bellows volumetry	1563.3
332.3 K, 170000 kPa, Bellows volumetry	1568
332.3 K, 180000 kPa, Bellows volumetry	1572.5
332.3 K, 190000 kPa, Bellows volumetry	1576.9
332.3 K, 200000 kPa, Bellows volumetry	1581.4
333.15 K, 100 kPa, Vibrating tube method	1466.1
343.15 K, 100 kPa, Vibrating tube method	1456.3
352.4 K, 10000 kPa, Bellows volumetry	1455.3
352.4 K, 20000 kPa, Bellows volumetry	1463.6
352.4 K, 30000 kPa, Bellows volumetry	1471.5
352.4 K, 40000 kPa, Bellows volumetry	1479
352.4 K, 50000 kPa, Bellows volumetry	1486.1
352.4 K, 60000 kPa, Bellows volumetry	1492.9
352.4 K, 70000 kPa, Bellows volumetry	1499.3
352.4 K, 80000 kPa, Bellows volumetry	1505.6
352.4 K, 90000 kPa, Bellows volumetry	1511.4
352.4 K, 100000 kPa, Bellows volumetry	1517.2
352.4 K, 110000 kPa, Bellows volumetry	1522.8
352.4 K, 120000 kPa, Bellows volumetry	1528.3
352.4 K, 130000 kPa, Bellows volumetry	1533.5
352.4 K, 140000 kPa, Bellows volumetry	1538.7
352.4 K, 150000 kPa, Bellows volumetry	1543.7
352.4 K, 160000 kPa, Bellows volumetry	1548.5
352.4 K, 170000 kPa, Bellows volumetry	1553.3
352.4 K, 180000 kPa, Bellows volumetry	1558
352.4 K, 190000 kPa, Bellows volumetry	1562.6
352.4 K, 200000 kPa, Bellows volumetry	1567.1
353.15 K, 100 kPa, Vibrating tube method	1446.5
363.15 K, 100 kPa, Vibrating tube method	1436.8
372.5 K, 10000 kPa, Bellows volumetry	1436.7
372.5 K, 20000 kPa, Bellows volumetry	1445.3
372.5 K, 30000 kPa, Bellows volumetry	1453.7
372.5 K, 40000 kPa, Bellows volumetry	1461.6
372.5 K, 50000 kPa, Bellows volumetry	1469.1
372.5 K, 60000 kPa, Bellows volumetry	1476.1
372.5 K, 70000 kPa, Bellows volumetry	1482.9
372.5 K, 80000 kPa, Bellows volumetry	1489.5
372.5 K, 90000 kPa, Bellows volumetry	1495.6
372.5 K, 100000 kPa, Bellows volumetry	1501.6
372.5 K, 110000 kPa, Bellows volumetry	1507.5
372.5 K, 120000 kPa, Bellows volumetry	1513.3
372.5 K, 130000 kPa, Bellows volumetry	1518.7
372.5 K, 140000 kPa, Bellows volumetry	1524
372.5 K, 150000 kPa, Bellows volumetry	1529.2
372.5 K, 160000 kPa, Bellows volumetry	1534.2
372.5 K, 170000 kPa, Bellows volumetry	1539.1
372.5 K, 180000 kPa, Bellows volumetry	1544
372.5 K, 190000 kPa, Bellows volumetry	1548.6
372.5 K, 200000 kPa, Bellows volumetry	1553.4
373.15 K, 100 kPa, Vibrating tube method	1427.3
392.8 K, 10000 kPa, Bellows volumetry	1417.8
392.8 K, 20000 kPa, Bellows volumetry	1427.3
392.8 K, 30000 kPa, Bellows volumetry	1436.1
392.8 K, 40000 kPa, Bellows volumetry	1444.4
392.8 K, 50000 kPa, Bellows volumetry	1452.4
392.8 K, 60000 kPa, Bellows volumetry	1459.8
392.8 K, 70000 kPa, Bellows volumetry	1466.9
392.8 K, 80000 kPa, Bellows volumetry	1473.7
392.8 K, 90000 kPa, Bellows volumetry	1480.1
392.8 K, 100000 kPa, Bellows volumetry	1486.5
392.8 K, 110000 kPa, Bellows volumetry	1492.5
392.8 K, 120000 kPa, Bellows volumetry	1498.5
392.8 K, 130000 kPa, Bellows volumetry	1504.2
392.8 K, 140000 kPa, Bellows volumetry	1509.6
392.8 K, 150000 kPa, Bellows volumetry	1514.9
392.8 K, 160000 kPa, Bellows volumetry	1520.2
392.8 K, 170000 kPa, Bellows volumetry	1525.3
392.8 K, 180000 kPa, Bellows volumetry	1530.2
392.8 K, 190000 kPa, Bellows volumetry	1535.1
392.8 K, 200000 kPa, Bellows volumetry	1539.9
413.1 K, 10000 kPa, Bellows volumetry	1399.4
413.1 K, 20000 kPa, Bellows volumetry	1409.4
413.1 K, 30000 kPa, Bellows volumetry	1418.9
413.1 K, 40000 kPa, Bellows volumetry	1427.7
413.1 K, 50000 kPa, Bellows volumetry	1436
413.1 K, 60000 kPa, Bellows volumetry	1443.8
413.1 K, 70000 kPa, Bellows volumetry	1451.3
413.1 K, 80000 kPa, Bellows volumetry	1458.4
413.1 K, 90000 kPa, Bellows volumetry	1465.2
413.1 K, 100000 kPa, Bellows volumetry	1471.7
413.1 K, 110000 kPa, Bellows volumetry	1478
413.1 K, 120000 kPa, Bellows volumetry	1484.2
413.1 K, 130000 kPa, Bellows volumetry	1490
413.1 K, 140000 kPa, Bellows volumetry	1495.8
413.1 K, 150000 kPa, Bellows volumetry	1501.3
413.1 K, 160000 kPa, Bellows volumetry	1506.6
413.1 K, 170000 kPa, Bellows volumetry	1511.8
413.1 K, 180000 kPa, Bellows volumetry	1516.9
413.1 K, 190000 kPa, Bellows volumetry	1521.8
413.1 K, 200000 kPa, Bellows volumetry	1526.8
432.7 K, 10000 kPa, Bellows volumetry	1381.4
432.7 K, 20000 kPa, Bellows volumetry	1392
432.7 K, 30000 kPa, Bellows volumetry	1401.8
432.7 K, 40000 kPa, Bellows volumetry	1411.1
432.7 K, 50000 kPa, Bellows volumetry	1419.9
432.7 K, 60000 kPa, Bellows volumetry	1428
432.7 K, 70000 kPa, Bellows volumetry	1435.9
432.7 K, 80000 kPa, Bellows volumetry	1443.4
432.7 K, 90000 kPa, Bellows volumetry	1450.5
432.7 K, 100000 kPa, Bellows volumetry	1457.2
432.7 K, 110000 kPa, Bellows volumetry	1463.7
432.7 K, 120000 kPa, Bellows volumetry	1470.1
432.7 K, 130000 kPa, Bellows volumetry	1476.1
432.7 K, 140000 kPa, Bellows volumetry	1482
432.7 K, 150000 kPa, Bellows volumetry	1487.7
432.7 K, 160000 kPa, Bellows volumetry	1493.2
432.7 K, 170000 kPa, Bellows volumetry	1498.6
432.7 K, 180000 kPa, Bellows volumetry	1503.9
432.7 K, 190000 kPa, Bellows volumetry	1508.9
432.7 K, 200000 kPa, Bellows volumetry	1514
